Measured values from US11780830B2, “Triazolone derivatives or salts thereof and pharmaceutical compositions comprising the same” (YUHAN CORPORATION, priority 2018, dated 2023).
Where a name gives a salt, the structure may show the parent alone. Values belong to the compound of their own block, whether it stands above or below them.

Legend:
Assay type in all cases: biochemical
[1] = molecular target: T1, recombinant human VAP-1 (Homo sapiens, UniProt Q16853); experiment: Activity on recombinant human VAP-1, HRP-coupled Amplex Red hydrogen peroxide assay; conditions: substrate 1 mM benzylamine; compound incubated with enzyme at 37° C. for 30 minutes; pH 7.4; read-out: Inhibitory Activity (IC50, nM) human VAP-1
T1 construct: purchased R&D systems
T1 sequence (Q16853 1-763): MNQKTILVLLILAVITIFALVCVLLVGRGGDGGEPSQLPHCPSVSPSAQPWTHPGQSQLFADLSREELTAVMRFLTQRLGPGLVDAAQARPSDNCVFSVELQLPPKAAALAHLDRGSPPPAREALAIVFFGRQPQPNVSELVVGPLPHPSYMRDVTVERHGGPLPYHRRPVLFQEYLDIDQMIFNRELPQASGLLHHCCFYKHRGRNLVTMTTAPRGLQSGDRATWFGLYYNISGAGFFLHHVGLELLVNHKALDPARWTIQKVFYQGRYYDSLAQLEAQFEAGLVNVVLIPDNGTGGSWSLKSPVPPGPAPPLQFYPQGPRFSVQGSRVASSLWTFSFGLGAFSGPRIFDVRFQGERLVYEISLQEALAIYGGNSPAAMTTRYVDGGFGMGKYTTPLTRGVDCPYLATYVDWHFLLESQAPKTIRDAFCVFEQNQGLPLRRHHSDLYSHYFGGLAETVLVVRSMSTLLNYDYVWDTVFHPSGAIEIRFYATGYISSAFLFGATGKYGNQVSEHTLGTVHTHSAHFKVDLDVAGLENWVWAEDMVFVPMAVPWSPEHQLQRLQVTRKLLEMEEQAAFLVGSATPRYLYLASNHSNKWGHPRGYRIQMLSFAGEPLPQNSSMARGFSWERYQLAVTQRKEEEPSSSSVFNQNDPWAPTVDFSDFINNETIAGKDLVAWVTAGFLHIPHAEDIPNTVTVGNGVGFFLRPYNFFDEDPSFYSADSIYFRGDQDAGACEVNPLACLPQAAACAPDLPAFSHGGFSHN
Description: (§1) The compounds according to the present technology were evaluated in terms of activity on recombinant human VAP-1 (R&D systems) by measuring the level of hydrogen peroxide in horseradish peroxidase (HRP)-coupled reaction using Amplex Red Hydrogen Peroxide Assay Kit (Molecular Probes, Invitrogen, USA). The experiment was carried out at room temperature using benzylamine as a substrate. In the HRP-coupled reaction, hydrogen peroxide oxidation of 10-acetyl-3,7-dihydroxyphenoxazine (Amplex Red reagent) produces resorufin, which is a highly fluorescent compound. Briefly, the test compound was dissolved in dimethyl sulfoxide (DMSO) at a concentration of 20 mM. The dose-response assessment was made by 1:3 serial dilution in DMSO, thereby creating an 8 point curve. The concentration of the upper part was controlled according to the efficacy of the compounds, followed by dilution with a reaction buffer solution to obtain a final DMSO concentration less than 1%. To each well of a 96 black well plate, human VAP-1 purified in 50 mM sodium phosphate buffer solution (pH7.4) was added. The test compounds dissolved in DMSO were incubated with the human VAP-1 enzymes at 37° C. for 30 minutes. After 30-minute incubation, each well is added with a reaction mixture containing 200 uM Amplex Red reagent prepared from 50 mM sodium phosphate buffer solution (pH 7.4), 1 mM benzylamine, and 1 U/mL HRP. Fluorescence intensity was measured at several time points during 1-2 hours using a microplate reader (Flexstation3, Molecular Devices) under the wavelength condition exciting at 544 nm and reading the emission at 590 nm. The inhibitory effect of the compounds was measured as a decrease (%) in the signal rate as compared to the control group without any inhibitor (only diluted DMSO). Data was fixed to a logistic model with four variables and IC50 value was calculated using GraphPad Prism program.

[2] = molecular target: T2, recombinant human MAO-A (monoamine oxidase-A) (Homo sapiens, UniProt P21397); experiment: Activity on recombinant human MAO-A, method similar to the VAP-1 assay; conditions: substrate 0.5 mM tyramine; read-out: Inhibitory Activity (IC50, nM) MAO-A
T2 construct: purchased Sigma-Aldrich
T2 sequence (P21397 1-527): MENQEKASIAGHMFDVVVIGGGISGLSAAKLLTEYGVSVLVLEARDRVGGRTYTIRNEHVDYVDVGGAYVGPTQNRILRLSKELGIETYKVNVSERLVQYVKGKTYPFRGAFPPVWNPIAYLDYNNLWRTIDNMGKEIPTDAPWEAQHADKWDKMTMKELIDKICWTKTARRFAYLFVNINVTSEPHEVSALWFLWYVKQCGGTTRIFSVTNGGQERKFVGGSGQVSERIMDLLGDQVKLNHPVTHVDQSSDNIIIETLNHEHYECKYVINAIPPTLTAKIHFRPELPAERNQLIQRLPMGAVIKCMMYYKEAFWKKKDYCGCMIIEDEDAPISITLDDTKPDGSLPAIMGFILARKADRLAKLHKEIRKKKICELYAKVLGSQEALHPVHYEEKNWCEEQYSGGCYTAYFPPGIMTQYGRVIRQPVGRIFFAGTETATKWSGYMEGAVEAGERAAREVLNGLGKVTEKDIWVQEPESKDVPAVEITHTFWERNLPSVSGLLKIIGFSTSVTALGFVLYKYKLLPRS
Description: as §1
(§2) In addition, the compounds according to the present technology were evaluated in terms of activity on a recombinant human MAO-A (monoamine oxidase-A, Sigma-Aldrich) and a recombinant human MAO-B (monoamine oxidase-B, Sigma-Aldrich) by using as substrates, 0.5 mM tyramine and 1 mM benzylamine, respectively, with a method similar to the activity evaluation method for recombinant human VAP-1. The compounds according to the present technology were also evaluated in terms of activity on a recombinant human DAO (diamine oxidase, R&D systems) by using as a substrate 1 mM putrescine with a method similar to the activity evaluation method for recombinant human VAP-1.

[3] = molecular target: T3, recombinant human DAO (diamine oxidase) (Homo sapiens, UniProt P19801); experiment: Activity on recombinant human DAO, method similar to the VAP-1 assay; conditions: substrate 1 mM putrescine; read-out: Inhibitory Activity (IC50, nM) DAO
T3 construct: purchased R&D systems
T3 sequence (P19801 20-751): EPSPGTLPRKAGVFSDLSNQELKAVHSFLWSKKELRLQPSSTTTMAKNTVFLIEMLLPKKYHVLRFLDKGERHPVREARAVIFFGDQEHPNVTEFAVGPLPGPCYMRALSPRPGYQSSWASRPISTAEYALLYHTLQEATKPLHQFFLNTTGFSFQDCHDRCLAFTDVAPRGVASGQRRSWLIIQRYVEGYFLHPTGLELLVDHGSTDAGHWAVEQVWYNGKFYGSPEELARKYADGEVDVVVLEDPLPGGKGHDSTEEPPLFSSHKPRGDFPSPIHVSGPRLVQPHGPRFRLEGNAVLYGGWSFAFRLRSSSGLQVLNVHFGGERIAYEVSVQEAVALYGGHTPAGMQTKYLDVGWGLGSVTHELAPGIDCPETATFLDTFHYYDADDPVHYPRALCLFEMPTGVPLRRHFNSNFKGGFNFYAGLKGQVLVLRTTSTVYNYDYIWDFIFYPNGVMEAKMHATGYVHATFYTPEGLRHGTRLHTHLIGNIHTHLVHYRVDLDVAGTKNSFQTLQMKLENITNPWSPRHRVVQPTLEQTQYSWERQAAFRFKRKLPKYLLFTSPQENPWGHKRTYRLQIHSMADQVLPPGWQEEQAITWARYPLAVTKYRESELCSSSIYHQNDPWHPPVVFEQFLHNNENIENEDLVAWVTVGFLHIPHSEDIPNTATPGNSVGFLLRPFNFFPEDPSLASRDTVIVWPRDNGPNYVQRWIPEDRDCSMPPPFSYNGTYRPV
Description: as §1, §2

SMILES: NC/C(=C/F)Cn1ncn(Cc2ccc(-c3ccc(C(=O)N4CCOCC4)cc3)s2)c1=O [Example 26, 2-[(2Z)-2-(aminomethyl)-3-fluoroprop-2-en-1-yl]-4-(5-[4-(morpholin-4-ylcarbonyl)phenyl]thiophen-2-ylmethyl)-2,4-dihydro-3H-1,2,4-triazol-3-one hydrochloride]
- IC50 [1]: 1.4 nM

SMILES: NC/C(=C/F)Cn1ncn(Cc2ccc(-c3ccc(-c4nnc[nH]4)cc3)s2)c1=O [Example 30, 2-[(2Z)-2-(aminomethyl)-3-fluoroprop-2-en-1-yl]-4-(5-[4-(4H-1,2,4-triazol-3-yl)phenyl]thiophen-2-ylmethyl)-2,4-dihydro-3H-1,2,4-triazol-3-one]
- IC50 [1]: 0.97 nM

SMILES: NC/C(=C/F)Cn1ncn(Cc2ccc(-c3cccc(-c4nnc[nH]4)c3)s2)c1=O [Example 32, 2-[(2Z)-2-(aminomethyl)-3-fluoroprop-2-en-1-yl]-4-(5-[3-(4H-1,2,4-triazol-3-yl)phenyl]thiophen-2-ylmethyl)-2,4-dihydro-3H-1,2,4-triazol-3-one]
- IC50 [1]: 1.2 nM

SMILES: CC(=O)Nc1cc(-c2ccc(Cn3cnn(C/C(=C\F)CN)c3=O)s2)ccn1 [Example 41, N-4-[5-(1-[(2Z)-2-(aminomethyl)-3-fluoroprop-2-en-1-yl]-5-oxo-1,5-dihydro-4H-1,2,4-triazol-4-ylmethyl)thiophen-2-yl]pyridin-2-ylacetamide hydrochloride]
- IC50 [1]: 1.3 nM

SMILES: COc1ccc(-c2ccc(Cn3cnn(C/C(=C\F)CN)c3=O)s2)cn1 [Example 44, 2-[(2Z)-2-(aminomethyl)-3-fluoroprop-2-en-1-yl]-4-[5-(6-methoxypyridin-3-yl)thiophen-2-yl]methyl-2,4-dihydro-3H-1,2,4-triazol-3-one hydrochloride]
- IC50 [1]: 1.9 nM

SMILES: NC/C(=C/F)Cn1ncn(Cc2ccc(-c3ccc(C(F)(F)F)nc3)s2)c1=O [Example 48, 2-[(2Z)-2-(aminomethyl)-3-fluoroprop-2-en-1-yl]-4-(5-[6-(trifluoromethyl)pyridin-3-yl]thiophen-2-ylmethyl)-2,4-dihydro-3H-1,2,4-triazol-3-one hydrochloride]
- IC50 [1]: 1.6 nM

SMILES: NC/C(=C/F)Cn1ncn(Cc2ccc(-c3ccc(N4CCOCC4)nc3)s2)c1=O [Example 51, 2-[(2Z)-2-(aminomethyl)-3-fluoroprop-2-en-1-yl]-4-(5-[6-(morpholin-4-yl)pyridin-3-yl]thiophen-2-ylmethyl)-2,4-dihydro-3H-1,2,4-triazol-3-one hydrochloride]
- IC50 [1]: 0.75 nM

SMILES: COCCNc1ncc(-c2ccc(Cn3cnn(C/C(=C/F)CN)c3=O)s2)cn1 [Example 53, 2-[(2E)-2-(aminomethyl)-3-fluoroprop-2-en-1-yl]-4-[(5-2-[(2-methoxyethyl)amino]pyrimidin-5-ylthiophen-2-yl)methyl]-2,4-dihydro-3H-1,2,4-triazol-3-one hydrochloride]
- IC50 [1]: 2.6 nM
- IC50 [2]: > 100000 nM
- IC50 [3]: 380 nM

SMILES: N#Cc1ncc(-c2ccc(Cn3cnn(C/C(=C/F)CN)c3=O)s2)cn1 [Example 54, 5-[5-(1-[(2E)-2-(aminomethyl)-3-fluoroprop-2-en-1-yl]-5-oxo-1,5-dihydro-4H-1,2,4-triazol-4-ylmethyl)thiophen-2-yl]pyrimidine-2-carbonitrile hydrochloride]
- IC50 [1]: 1.7 nM
- IC50 [2]: > 10000 nM
- IC50 [3]: 110 nM

The remaining lines, values ahead:

- IC50 [1]: 2.7 nM
SMILES: Cc1cc(-c2ccc(Cn3cnn(C/C(=C\F)CN)c3=O)s2)cc2c1NC(=O)CC2 [Example 76, 6-[5-(1-[(2Z)-2-(aminomethyl)-3-fluoroprop-2-en-1-yl]-5-oxo-1,5-dihydro-4H-1,2,4-triazol-4-ylmethyl)thiophen-2-yl]-8-methyl-3,4-dihydroquinolin-2(1H)-one hydrochloride]

- IC50 [1]: 1.9 nM
SMILES: NC/C(=C/F)Cn1ncn(Cc2ccc(-c3ccc4c(c3)NC(=O)CO4)s2)c1=O [Example 89, 6-[5-(1-[(2Z)-2-(aminomethyl)-3-fluoroprop-2-en-1-yl]-5-oxo-1,5-dihydro-4H-1,2,4-triazol-4-ylmethyl)thiophen-2-yl]-2H-1,4-benzoxazin-3(4H)-one hydrochloride]

- IC50 [1]: 1.2 nM
SMILES: NC/C(=C/F)Cn1ncn(Cc2ccc(-c3ccc4c(c3)NC(=O)OC4)s2)c1=O [Example 99, 7-[5-(1-[(2Z)-2-(aminomethyl)-3-fluoroprop-2-en-1-yl]-5-oxo-1,5-dihydro-4H-1,2,4-triazol-4-ylmethyl)thiophen-2-yl]-1,4-dihydro-2H-3,1-benzoxazin-2-one hydrochloride]

- IC50 [1]: 1 nM
- IC50 [2]: > 100000 nM
- IC50 [3]: 680 nM
SMILES: NC/C(=C\F)Cn1ncn(Cc2ccc(/C=C/c3cnc4[nH]c(=O)oc4c3)s2)c1=O [Example 122, 6-[(E)-2-[5-[[1-[(E)-2-(aminomethyl)-3-fluoro-allyl]-5-oxo-1,2,4-triazol-4-yl]methyl]-2-thienyl]vinyl]-3H-oxazolo[4,5-b]pyridin-2-one hydrochloride]

- IC50 [1]: 31 nM
SMILES: NC/C(=C/F)Cn1ncn(CCc2cccs2)c1=O [Example 140, 2-[(2Z)-2-(aminomethyl)-3-fluoroprop-2-en-1-yl]-4-[2-(thiophen-2-yl)ethyl]-2,4-dihydro-3H-1,2,4-triazol-3-one]
